Experiments:
[1] = system: bovine sperm; experiment: In vitro fertilization with bovine sperm frozen with clofilium, washed or not washed after thawing; format: cell-based; conditions: bovine sperm frozen with 0.2 μM clofilium, vs control
Experimental: In order to be as close as possible of the possible field usage, sperm were frozen with clofilium prior to test their ability to improve fertilization. Two conditions were tested: in the first one, clofilium was present during the sperm incubation period, and in the second one, sperm was washed to remove clofilium in order to mimic the condition that may occur in the female reproductive tract. Straws containing clofilium were obtained as described below. Bovine ejaculate was split into two fractions, and diluted 1:1 in either Optixcell (Fraction 1) or Optixcell containing clofilium 0.2 μM (Fraction 2). After 10 minutes of 34° C. incubation, semen was then diluted to a final concentration of 57 million of spermatozoa/ml in Optixcell (Fraction 1) or Optixcell containing clofilium 0.2 μM (Fraction 2). Diluted semen was frozen as described above and stored in liquid nitrogen until in vitro fertilization. Two types of straws were used: control straws and straws containing clofilium. For straws containing clofilium, two conditions were tested: washed and not washed. The wash medium is a commonly used medium, sp-TALP, for bovine sperm handling and which composition is described above. For “not washed” conditions, sperm were incubated with sp-TALP containing 0.2 μM clofilium. […]

[2] = system: bovine sperm; experiment: Ability of frozen-thawed bovine capacitated sperm to fertilize oocytes after 24 h incubation in sp-TALP (2-cell embryos, blastocysts); format: cell-based; conditions: 0.2 μM clofilium in sp-TALP 24 h prior fertilization, vs control 24 h
Experimental: Bovine sperm was obtained by ejaculation. Ejaculate was diluted 1:1 in Optixcell. After 10 minutes of 34° C. incubation, semen was then diluted to a final concentration of 57 million of spermatozoa/mL in Optixcell. Optixcell is a TRIS citrate buffer containing liposomes extruded from egg yolk lecithins, glycerol and antibiotics described by CEE (Directive 88/407/CEE). Diluted semen was slowly cooled down to 4° C. (3 to 4 h equilibration in a tempered water-bath), 0.25 mL straws were filled and then frozen in a controlled rate freezer at a cooling rate of 5° C./min from 4° C. to −10° C., 40° C./min from −10° C. to −110° C., 15° C./min from −110° C. to […]. Straws were then stored in liquid nitrogen until in vitro fertilization. Straws were thawed in a water-bath at 37° C. for 45 s. Each straw was wiped with 70° ethanol before being opened. […] Sperm concentration was measured and 750 000 sperm cells are injected into a fertilization droplet (500 μL) containing oocytes bathing in fertilization medium. […] Sperm (1.5 M/mL) and cumulus oocyte complexes (COCs) co-culture were performed at 38.5° C. under gaseous atmosphere of 5% v/v CO2 and saturated humidity for 48 h and then fertilization outcome was assessed. […] Cleavage rate assessed at 48 h and blastocyst rate at day 9 post-fertilization. […]

## CCCCCCC[N+](CC)(CC)CCCCc1ccc(Cl)cc1 [clofilium]
[1]; not washed (clofilium present in sp-TALP), up to 48 h incubation
  percentage of 2-cell embryos vs matured oocytes at 24 h post fertilization: positive effect on embryo outcome lasted 48 hours
[1]; washed clofilium, 24 h incubation in sp-TALP
  percentage of 2-cell embryos vs matured oocytes at 24 h post fertilization: positive effect at 24 hours is still present, although lower
[1]; washed clofilium, 48 h incubation in sp-TALP
  percentage of 2-cell embryos vs matured oocytes at 24 h post fertilization: the effect is no longer present
[2]
  percentage of blastocysts vs matured oocytes 9 days after fertilization: improves the yield of bovine blastocysts
